What is called IC50 is the point on the concentration scale where inhibition reaches its midpoint.

This passage reports IC50 and selectivity ratio results from ChEMBL document CHEMBL2046395, “Discovery of nitroheterocycles active against African trypanosomes. In vitro screening and preliminary SAR studies” (Bioorg Med Chem Lett, 2012).

Data set [1] deals with L6. Briefly: Cytotoxicity against rat L6 cells. The format is cell-based.
A short description of data set [2]: Selectivity index, ratio of IC50 for rat L6 cells to IC50 for Trypanosoma brucei rhodesiense STIB900. The data set is classed as toxicity, cell-based. Conditions: read-out: Ratio IC50.
For data set [3], the system named is Trypanosoma brucei rhodesiense. Briefly: Antitrypanosomal activity against Trypanosoma brucei rhodesiense STIB900 by Alamar blue growth inhibition assay. The data set is classed as functional, organism-based. In general terms: Resazurin is reduced to fluorescent resorufin, in cell work by metabolically active cells.

In the case of `CN(C)CCOc1nn(Cc2ccccc2)c2ccc([N+](=O)[O-])cc12`, the IC50 in data set [1] was 57.6 µM; in data set [3] it was 10.8 µM. Further, the selectivity ratio in data set [2] stood at 5.3.

As for `CN1C(=O)CN(CCCCCN2CCCCC2)c2ccc([N+](=O)[O-])cc21`, the IC50 in data set [1] came out at 52.3 µM; in data set [3], 14.6 µM. Moreover, the selectivity ratio in data set [2] was found to be 3.6.

As for `COc1nn(Cc2ccccc2Cn2nc(OC)c3cc([N+](=O)[O-])ccc32)c2ccc([N+](=O)[O-])cc12`, the values for the IC50 in data set [1] and in data set [3] were greater than 204 µM and 119 µM, respectively. The selectivity ratio in data set [2] is greater than 1.7.

Take `O=C(NN1Cc2ccccc2CN1)c1cc([N+](=O)[O-])ccc1Cl`: the IC50 in data set [1] amounted to 180 µM; in data set [3], 82.2 µM. The selectivity ratio in data set [2] came to 2.2.

With `O=C(NN1Cc2ccccc2C1)c1cc([N+](=O)[O-])ccc1F`, the IC50 in data set [1] was greater than 331 µM; in data set [3], 40.2 µM. In addition, the selectivity ratio in data set [2] was greater than 8.3.

As to `CN1C(=O)C2Cc3ccccc3CN2c2ccc([N+](=O)[O-])cc21` (stereo not drawn), the IC50 worked out at 18.7 µM in data set [1] and 61.1 µM in data set [3]. Also, the selectivity ratio in data set [2] was found to be 0.3.

With `O=c1c2cc([N+](=O)[O-])ccc2n2n1Cc1ccccc1CC2`, the IC50 in data set [1] is greater than 338 µM; in data set [3] it was 86.4 µM. The selectivity ratio in data set [2] was greater than 4.

The compound `COc1cc([C@@H]2c3cc4c(cc3[C@H](O)[C@H]3COC(=O)[C@H]23)OCO4)cc(OC)c1OC` [PODOFILOX] yielded an IC50 in data set [1] of 0.019 µM.

As to `C[n+]1cccc2c(=O)n3n(c21)Cc1ccccc1C3`, the IC50 in data set [1] was greater than 263 µM; in data set [3] it was 241 µM. Moreover, the selectivity ratio in data set [2] is greater than 1.1.

As to `O=C(NN(Cc1ccccc1)Cc1ccccc1)c1cc([N+](=O)[O-])ccc1Cl`, the IC50 in data set [1] came to 41.7 µM; in data set [3], 37.6 µM. Further, the selectivity ratio in data set [2] amounted to 1.1.

On to `O=C1CN(CCCCCN2CCCCC2)c2ccc([N+](=O)[O-])cc2N1`, for which the IC50 in data set [1] amounted to 97.1 µM; in data set [3] it was 21.2 µM. Further, the selectivity ratio in data set [2] is 4.6.

For `O=C(Cc1cc([N+](=O)[O-])ccc1F)NN1CCCCC1`, the IC50 in data set [1] is greater than 355 µM; in data set [3] it was 320 µM. For the same compound, the selectivity ratio in data set [2] was greater than 1.1.

For the compound `O=C(NN1Cc2ccccc2C1)c1cc([N+](=O)[O-])ccc1Cl`, the values for the IC50 in data set [1] and in data set [3] were 19.8 µM and 97.3 µM, respectively. In data set [2], the selectivity ratio turned out to be 0.2.

As to `O=C(NN1Cc2ccccc2C1)c1ccccc1F`, the figures for the IC50 in data set [1] and in data set [3] were 241 µM and 166 µM, respectively. For the same compound, the selectivity ratio in data set [2] came out at 1.5.

`O=C(Cc1cc([N+](=O)[O-])ccc1F)NN1Cc2ccccc2C1`: the IC50 in data set [1] turned out to be 168 µM; in data set [3] it was 180 µM. Further, in data set [2], the selectivity ratio was determined as 0.9.

Consider `CN(C)NC(=O)c1cc([N+](=O)[O-])ccc1Cl`, for which the IC50 in data set [1] and in data set [3] was greater than 410 µM each time.

As for `O=[N+]([O-])c1ccc2c(c1)CC([O-])=N[N+]21CCCCC1`, the IC50 in data set [1] is 324 µM; in data set [3] it was 198 µM. Also, the selectivity ratio in data set [2] was 1.6.

For the compound `CN(C)CCCOc1nn(Cc2ccccc2F)c2ccc([N+](=O)[O-])cc12`, the values for the IC50 in data set [1] and in data set [3] were 32 µM and 5.2 µM, respectively. Further, the selectivity ratio in data set [2] stood at 6.1.

Turning to `CSc1ccc(OCc2ncc([N+](=O)[O-])n2C)cc1` [FEXINIDAZOLE], the selectivity ratio in data set [2] was greater than 322. Also, the midpoint of inhibition in data set [3], the IC50, lay at 1.71 µM.

As to `O=C(NN1CCc2ccccc2C1)c1cc([N+](=O)[O-])ccc1Cl`, the IC50 was found to be 22 µM in data set [1] and 55.5 µM in data set [3]. In addition, the selectivity ratio in data set [2] is 0.4.

As to `[O-]C1=N[N+]2(CCCCC2)c2ccccc21`, the IC50 in data set [1] and in data set [3] was greater than 494 µM throughout.

`O=c1c2cc([N+](=O)[O-])ccc2[nH]n1Cc1ccccc1`: the IC50 in data set [1] was determined as 234 µM; in data set [3], 163 µM. Besides, the selectivity ratio in data set [2] was determined as 1.4.

In the case of `COc1nn(Cc2cccc(Cn3nc(OC)c4cc([N+](=O)[O-])ccc43)n2)c2ccc([N+](=O)[O-])cc12`, the IC50 in data set [1] came out at 151 µM; in data set [3], 57.6 µM. In data set [2], the selectivity ratio was found to be 2.6.

Consider `CCCn1c2ccc([N+](=O)[O-])cc2c(=O)n1Cc1ccccc1`, for which the IC50 worked out at 77.4 µM in data set [1] and 20 µM in data set [3]. In addition, in data set [2], the selectivity ratio amounted to 3.9.

Turning to `CCOc1ccc([N+](=O)[O-])cc1C(=O)NN(c1ccccc1)c1ccccc1`, the IC50 in data set [1] is 185 µM; in data set [3] it was 14.2 µM. The selectivity ratio in data set [2] was 13.

Consider `O=[N+]([O-])c1ccc2c(c1)c(OCc1ccccc1)nn2Cc1ccccc1-c1ccccc1Cn1nc(OCc2ccccc2)c2cc([N+](=O)[O-])ccc21`, for which the IC50 in data set [1] is greater than 139 µM; in data set [3], 80.5 µM. The selectivity ratio in data set [2] was greater than 1.7.

`O=C(NN(Cc1ccccc1)Cc1ccccc1)c1ccccc1` [N',N'-DIBENZYLBENZOHYDRAZIDE]: the IC50 in data set [1] and in data set [3] was greater than 316 µM each time.

Regarding `O=c1[nH]n(-c2ccccc2)c2ccc([N+](=O)[O-])cc12`, the IC50 in data set [1] stood at 158 µM; in data set [3], 109 µM. In addition, the selectivity ratio in data set [2] turned out to be 1.4.

In the case of `O=C(NN1Cc2ccccc2C1)c1ccccc1`, the IC50 in data set [1] was 68.4 µM; in data set [3], greater than 419 µM. Moreover, in data set [2], the selectivity ratio is 0.2.

For the compound `O=C(NN(c1ccccc1)c1ccccc1)c1cc([N+](=O)[O-])ccc1F`, the IC50 worked out at 3.2 µM in data set [1] and 5.6 µM in data set [3]. The selectivity ratio in data set [2] was determined as 0.6.

On to `O=C1C[N+]2(CCCCC2)c2ccc([N+](=O)[O-])cc21`, for which the results for the IC50 in data set [1] and in data set [3] were 84.9 µM and 213 µM, respectively. Besides, the selectivity ratio in data set [2] amounted to 0.4.

In the case of `O=c1[nH]n(Cc2ccccc2F)c2ccc([N+](=O)[O-])cc12`, the IC50 is 210 µM in data set [1] and 168 µM in data set [3]. Further, the selectivity ratio in data set [2] turned out to be 1.3.

Turning to `CCCCn1c2ccc([N+](=O)[O-])cc2c(=O)n1Cc1ccccc1`, the IC50 in data set [1] is 46.7 µM; in data set [3], 48.9 µM. In data set [2], the selectivity ratio is 1.

Consider `COc1nn(Cc2ccccc2Cn2nc(OC)c3ccccc32)c2ccccc12`, for which the IC50 came out at 44.7 µM in data set [1] and 101 µM in data set [3]. Also, in data set [2], the selectivity ratio turned out to be 0.4.

On to `O=C(NN(Cc1ccccc1)Cc1ccccc1)c1cc([N+](=O)[O-])ccc1F`, for which the values for the IC50 in data set [1] and in data set [3] were 19.3 µM and 17.1 µM, respectively. Also, the selectivity ratio in data set [2] was 1.1.

With `CN1C(=O)C2Cc3ccccc3CCN2c2ccc([N+](=O)[O-])cc21` (stereo not drawn), the IC50 was determined as 15.1 µM in data set [1] and 63.4 µM in data set [3]. The selectivity ratio in data set [2] came to 0.2.

On to `O=C(NN(Cc1ccccc1)Cc1ccccc1)c1ccccc1Cl`, for which the IC50 in data set [1] came out at 50.7 µM; in data set [3] it was 55.9 µM. Also, the selectivity ratio in data set [2] was found to be 0.9.

In the case of `O=[N+]([O-])c1ccc2c(c1)C([O-])=N[N+]21CCCCCC1`, the IC50 in data set [1] was greater than 382 µM; in data set [3], 192 µM. Further, in data set [2], the selectivity ratio is greater than 2.

Take `Cn1c2ccc([N+](=O)[O-])cc2c(=O)n1Cc1ccccc1`: the IC50 in data set [1] came out at 43.4 µM; in data set [3], 8.2 µM. The selectivity ratio in data set [2] came to 5.3.

Turning to `Cn1[nH]c(=O)c2cc([N+](=O)[O-])ccc21`, the IC50 is greater than 517 µM in data set [1] and 313 µM in data set [3]. For the same compound, the selectivity ratio in data set [2] is greater than 1.7.

Regarding `O=C(NN1Cc2ccccc2C1)c1cccnc1Cl`, the IC50 in data set [1] and in data set [3] was greater than 365 µM throughout.

Consider `Cn1c2ccc([N+](=O)[O-])cc2c(=O)n1-c1ccccc1`, for which the IC50 in data set [1] was 66.5 µM; in data set [3], 138 µM. Moreover, in data set [2], the selectivity ratio turned out to be 0.5.

In the case of `O=C(NCc1cc([N+](=O)[O-])ccc1N1CCc2ccccc2C1)NCc1cc([N+](=O)[O-])ccc1N1CCc2ccccc2C1`, the results for the IC50 in data set [1] and in data set [3] were greater than 168 µM and 7.1 µM, respectively. Moreover, the selectivity ratio in data set [2] was greater than 23.6.

Regarding `COc1nn(Cc2ccccc2F)c2ccc([N+](=O)[O-])cc12`, the IC50 in data set [1] was greater than 332 µM; in data set [3], 191 µM. Besides, the selectivity ratio in data set [2] is greater than 1.7.

Take `O=c1c2cc([N+](=O)[O-])ccc2n(Cc2ccccc2)n1Cc1ccccc1`: the figures for the IC50 in data set [1] and in data set [3] were 37.3 µM and 49.5 µM, respectively. In addition, in data set [2], the selectivity ratio amounted to 0.8.

For the compound `O=C(NN1CCCCC1)c1cc([N+](=O)[O-])ccc1Cl`, the IC50 in data set [1] was greater than 352 µM; in data set [3], 212 µM. For the same compound, the selectivity ratio in data set [2] is greater than 1.7.

As to `CN1C(=O)C2=Cc3ccccc3CCN2c2ccc([N+](=O)[O-])cc21`, the IC50 in data set [1] is greater than 311 µM; in data set [3] it was 191 µM. The selectivity ratio in data set [2] was greater than 1.6.

Regarding `Cn1c(=O)c2cc([N+](=O)[O-])ccc2n1Cc1ccccc1`, the IC50 turned out to be 166 µM in data set [1] and 163 µM in data set [3]. Moreover, the selectivity ratio in data set [2] stood at 1.

Turning to `O=c1c2cc([N+](=O)[O-])ccc2n2n1Cc1ccccc1C2`, the figures for the IC50 in data set [1] and in data set [3] were 222 µM and 66.8 µM, respectively. The selectivity ratio in data set [2] amounted to 3.3.

With `O=c1c2cc([N+](=O)[O-])ccc2[nH]n1Cc1ccccn1`, the half-inhibitory concentration (IC50) in data set [1] turned out to be 286 µM; in data set [3] it was 252 µM. Besides, the selectivity ratio in data set [2] is 1.1.

On to `O=[N+]([O-])c1ccc2[nH]nc(OCc3ccccc3Cl)c2c1`, for which the IC50 in data set [1] stood at 30.5 µM; in data set [3], 73.4 µM. In data set [2], the selectivity ratio was found to be 0.4.

As to `O=C(NN(c1ccccc1)c1ccccc1)c1cc([N+](=O)[O-])ccc1Cl`, the IC50 in data set [1] came out at 13.3 µM; in data set [3] it was 7.4 µM. Moreover, in data set [2], the selectivity ratio was determined as 1.8.

As to `CON1C(=O)C2CCCCN2c2ccc([N+](=O)[O-])cc21` (stereo not drawn), the IC50 in data set [1] came out at 67.4 µM; in data set [3], 122 µM. Besides, the selectivity ratio in data set [2] worked out at 0.6.

For `CN1C(=O)C2CCCCN2c2ccc([N+](=O)[O-])cc21` (stereo not drawn), the IC50 in data set [1] was determined as 102 µM; in data set [3] it was 154 µM. Besides, the selectivity ratio in data set [2] came out at 0.7.

On to `O=C(NN1CCc2ccccc2C1)c1cc([N+](=O)[O-])ccc1F`, for which the IC50 in data set [1] is greater than 317 µM; in data set [3], 23.1 µM. Besides, the selectivity ratio in data set [2] was greater than 13.7.
